Measurements as given in patent US20070225330A1, “USE OF CERTAIN PHENYL-NAPHTHYL COMPOUNDS THAT DO NOT HAVE SIGNIFICANT AFFINITY TO ER ALPHA OR ER BETA FOR PROTECTION OF NEURONS AND OLIGODENDROCYTES IN THE TREATMENT OF MULTIPLE SCLEROSIS” (AVENTIS PHARMACEUTICALS INC., priority 2004, published 2007).

How the values were obtained:
[1] = system: Primary rat oligodendrocyte progenitor cells; assay: Oligodendrocyte toxicity assay (LDH release, protection against toxin-induced toxicity); assay type: cell-based; settings: compound pretreatment 1 hour, LDH after 24 hours; for Oligodendrocyte progenitor protection against Camptothecin: Camptothecin 10 μM; for Oligodendrocyte progenitor protection against SIN-1: SIN-1 10 mM
Procedure: Oligodendrocyte Toxicity Assay
Primary rat oligodendrocyte progenitor cells were obtained from the cerebra of 2-3 day old postnatal rats (Sprague Dawley). The meninges were removed and tissue was mechanically dissociated. Cells were plated on T75 flasks and fed with DMEM+10% FBS.
Enriched OLPs were collected by mechanical separation from the astrocytic monolayer and were expanded in serum free media (SFM) supplemented with the mitogens, PDGF-AA (10 ng/ml) and FGF-2 (10 ng/ml).
To generate mature oligodendrocytes, progenitor cells were switched to SFM supplemented with IGF-1 (10 ng/ml) 24 hours after plating and cells were grown under these conditions for 7 days prior to experimental assays.
Cells were plated in 96-well plates, 10,000 per well. Medium was changed to fresh medium and cells were pretreated with compounds for 1 hour. Toxins were added to give the following final concentrations:
After 24 hours, medium was removed and assayed for LDH activity using the Promega cytotox 96 kit (catalog #G1780). Results were calculated as percent protection against toxin-induced toxicity.

ER α = target: T1, ER α (Homo sapiens, UniProt P03372); assay: Affinity for ER receptors (α); assay type: binding; settings: unit not given
T1 sequence (P03372 1-595): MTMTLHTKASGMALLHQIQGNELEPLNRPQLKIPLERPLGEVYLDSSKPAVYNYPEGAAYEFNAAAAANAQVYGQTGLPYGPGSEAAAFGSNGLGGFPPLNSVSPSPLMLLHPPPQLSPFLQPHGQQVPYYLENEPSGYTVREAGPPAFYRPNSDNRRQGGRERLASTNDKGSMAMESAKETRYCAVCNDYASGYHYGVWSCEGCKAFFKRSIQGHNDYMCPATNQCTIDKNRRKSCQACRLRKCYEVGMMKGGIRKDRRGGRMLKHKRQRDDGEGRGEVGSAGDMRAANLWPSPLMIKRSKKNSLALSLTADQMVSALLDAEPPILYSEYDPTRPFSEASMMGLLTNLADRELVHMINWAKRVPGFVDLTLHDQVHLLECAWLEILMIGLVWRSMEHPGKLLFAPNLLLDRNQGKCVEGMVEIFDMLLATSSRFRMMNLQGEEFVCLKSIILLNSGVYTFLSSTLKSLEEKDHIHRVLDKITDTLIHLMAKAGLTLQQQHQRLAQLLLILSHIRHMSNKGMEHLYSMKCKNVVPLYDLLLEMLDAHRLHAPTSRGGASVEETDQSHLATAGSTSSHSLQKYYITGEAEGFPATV

ER β = ER β (Homo sapiens, UniProt Q92731); assay: Affinity for ER receptors (β); assay type: binding; settings: unit not given
Chain of ER β (Q92731 whole entry): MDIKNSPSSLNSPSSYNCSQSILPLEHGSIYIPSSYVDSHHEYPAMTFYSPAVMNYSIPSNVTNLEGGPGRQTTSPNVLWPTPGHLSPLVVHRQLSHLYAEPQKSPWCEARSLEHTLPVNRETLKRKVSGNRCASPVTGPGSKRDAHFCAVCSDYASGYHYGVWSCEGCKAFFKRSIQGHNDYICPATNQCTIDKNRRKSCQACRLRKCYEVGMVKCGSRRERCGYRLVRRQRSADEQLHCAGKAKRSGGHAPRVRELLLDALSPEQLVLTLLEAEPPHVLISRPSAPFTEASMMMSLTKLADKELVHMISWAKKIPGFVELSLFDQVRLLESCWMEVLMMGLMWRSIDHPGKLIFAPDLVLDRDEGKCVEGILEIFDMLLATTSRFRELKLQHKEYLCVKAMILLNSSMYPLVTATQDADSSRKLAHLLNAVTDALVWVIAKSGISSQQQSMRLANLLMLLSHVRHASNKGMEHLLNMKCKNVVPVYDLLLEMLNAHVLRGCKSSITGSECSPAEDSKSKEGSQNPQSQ

Affinity for ER receptors* α (ER α)	Affinity for ER receptors* β (ER β)	SMILES	Oligodendrocyte progenitor protection against Camptothecin [1]	Oligodendrocyte progenitor protection against SIN-1 [1]
408	14.7	Oc1ccc(-c2ccc3cc(O)ccc3c2)cc1 [Compound 7, 6-(4-Hydroxy-phenyl)-2-naphthalenol]	Effective	Effective
		COc1ccc(-c2sc3cc(O)ccc3c2Oc2ccc(OCCN3CCCCC3)cc2)cc1 [Compound 10, Arzoxifen]	Very effective	Very effective
35.4	3	Oc1ccc(-c2ccc3cc(O)ccc3c2Cl)cc1 [Compound 4, 5-chloro-6-(4-hydroxyphenyl)-2-naphthalenol]	Effective	Effective

SMILES	Affinity for ER receptors* α (ER α)	Affinity for ER receptors* β (ER β)	Oligodendrocyte progenitor protection against Camptothecin [1]	Oligodendrocyte progenitor protection against SIN-1 [1]
C[C@@]12CCc3cc(O)ccc3[C@H]1CC[C@@]1(C)[C@H]2CC[C@@H]1O [Compound 11, Estrogen]	1.17	6.1	Effective	Effective
